According to patent US20240368135A1 (VERTEX PHARMACEUTICALS INCORPORATED, priority 2021, published 2024):

Target: human NaV 1.8 (Homo sapiens, UniProt Q9Y5Y9)
Assay: E-VIPR assay detecting and measuring NaV inhibition properties
Assay type: cell-based
Conditions: HEK cells expressing truncated human NaV 1.8; no human serum; read-out: IC50 in the E-VIPR Assay
How it was run: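 Membrane potential was followed by coumarin/oxonol FRET during electrical field stimulation of matrigel-seeded HEK cells carrying truncated human NaV1.8 plus KIR2.1. Dosing used 11 points, 3-fold steps, top 300 nM final, 0.625% DMSO, with or without 25% human serum.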

Chain of human NaV 1.8 (Q9Y5Y9 126-399 limits assumed): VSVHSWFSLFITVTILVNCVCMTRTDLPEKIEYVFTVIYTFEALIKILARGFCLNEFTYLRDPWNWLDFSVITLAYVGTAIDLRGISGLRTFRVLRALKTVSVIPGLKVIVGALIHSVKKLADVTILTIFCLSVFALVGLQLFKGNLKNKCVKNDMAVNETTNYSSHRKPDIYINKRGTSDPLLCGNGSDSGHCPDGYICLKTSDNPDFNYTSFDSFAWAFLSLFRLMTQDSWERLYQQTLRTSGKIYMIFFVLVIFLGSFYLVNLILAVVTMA
Chain of human NaV 1.8 (Q9Y5Y9 660-890 limits assumed): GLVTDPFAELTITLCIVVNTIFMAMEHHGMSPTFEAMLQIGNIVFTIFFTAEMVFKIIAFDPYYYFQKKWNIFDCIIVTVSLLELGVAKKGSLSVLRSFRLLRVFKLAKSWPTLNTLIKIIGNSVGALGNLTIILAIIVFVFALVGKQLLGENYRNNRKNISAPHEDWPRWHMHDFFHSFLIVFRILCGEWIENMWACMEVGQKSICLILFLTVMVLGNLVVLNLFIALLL
Chain of human NaV 1.8 (Q9Y5Y9 1148-1722 limits assumed): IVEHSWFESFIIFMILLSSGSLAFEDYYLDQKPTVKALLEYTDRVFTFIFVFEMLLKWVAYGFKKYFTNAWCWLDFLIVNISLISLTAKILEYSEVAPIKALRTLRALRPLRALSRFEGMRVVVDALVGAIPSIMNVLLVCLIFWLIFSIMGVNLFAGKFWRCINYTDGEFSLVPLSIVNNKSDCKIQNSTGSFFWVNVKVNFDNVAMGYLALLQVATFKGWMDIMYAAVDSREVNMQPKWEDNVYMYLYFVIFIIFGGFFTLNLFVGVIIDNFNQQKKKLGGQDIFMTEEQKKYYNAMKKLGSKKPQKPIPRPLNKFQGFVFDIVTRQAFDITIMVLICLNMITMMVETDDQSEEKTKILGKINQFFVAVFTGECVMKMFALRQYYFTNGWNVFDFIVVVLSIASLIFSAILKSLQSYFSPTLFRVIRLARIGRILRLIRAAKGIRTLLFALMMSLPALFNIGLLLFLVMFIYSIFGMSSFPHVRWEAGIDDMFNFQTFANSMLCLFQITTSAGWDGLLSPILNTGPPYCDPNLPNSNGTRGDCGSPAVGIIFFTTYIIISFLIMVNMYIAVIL

SMILES | IC50 [nM]
COc1c([C@H]2[C@H](C(=O)NC3CC(F)(F)C3)O[C@@](C)(C(F)(F)F)[C@H]2C)ccc(F)c1F [Compound 280, (2R,3S,4S,5R)-3-(3,4-difluoro-2-methoxyphenyl)-N-(3,3-difluorocyclobutyl)-4,5-dimethyl-5-(trifluoromethyl)tetrahydrofuran-2-carboxamide] | 100 to 1000
COc1c([C@H]2[C@H](C(=O)NCC(C)(C)C(N)=O)O[C@@](C)(C(F)(F)F)[C@H]2C)ccc(F)c1F [Compound 282, (2R,3S,4S,5R)-N-(3-amino-2,2-dimethyl-3-oxopropyl)-3-(3,4-difluoro-2-methoxyphenyl)-4,5-dimethyl-5-(trifluoromethyl)tetrahydrofuran-2-carboxamide] | ≥ 1000
COc1c([C@H]2[C@H](C(=O)NCCc3cnn(C)c3)O[C@@](C)(C(F)(F)F)[C@H]2C)ccc(F)c1F [Compound 283, (2R,3S,4S,5R)-3-(3,4-difluoro-2-methoxyphenyl)-4,5-dimethyl-N-(2-(1-methyl-1H-pyrazol-4-yl)ethyl)-5-(trifluoromethyl)tetrahydrofuran-2-carboxamide] | ≥ 1000
COc1c([C@H]2[C@H](C(=O)NCC3COC(C)(C)C3)O[C@@](C)(C(F)(F)F)[C@H]2C)ccc(F)c1F (stereo partly drawn) [Compound 284, (2R,3S,4S,5R)-3-(3,4-difluoro-2-methoxyphenyl)-N-((5,5-dimethyltetrahydrofuran-3-yl)methyl)-4,5-dimethyl-5-(trifluoromethyl)tetrahydrofuran-2-carboxamide] | ≥ 1000
COc1c([C@H]2[C@H](C(=O)NCCc3c(C)n[nH]c3C)O[C@@](C)(C(F)(F)F)[C@H]2C)ccc(F)c1F [Compound 285, (2R,3S,4S,5R)-3-(3,4-difluoro-2-methoxyphenyl)-N-(2-(3,5-dimethyl-1H-pyrazol-4-yl)ethyl)-4,5-dimethyl-5-(trifluoromethyl)tetrahydrofuran-2-carboxamide] | ≥ 1000
COc1c([C@H]2[C@H](C(=O)NCc3cc(C(N)=O)co3)O[C@@](C)(C(F)(F)F)[C@H]2C)ccc(F)c1F [Compound 286, 5-(((2R,3S,4S,5R)-3-(3,4-difluoro-2-methoxyphenyl)-4,5-dimethyl-5-(trifluoromethyl)tetrahydrofuran-2-carboxamido)methyl)furan-3-carboxamide] | ≥ 1000
COc1c([C@H]2[C@H](C(=O)NCCc3c(C)noc3C)O[C@@](C)(C(F)(F)F)[C@H]2C)ccc(F)c1F [Compound 287, (2R,3S,4S,5R)-3-(3,4-difluoro-2-methoxyphenyl)-N-(2-(3,5-dimethylisoxazol-4-yl)ethyl)-4,5-dimethyl-5-(trifluoromethyl)tetrahydrofuran-2-carboxamide] | ≥ 1000
COCc1cc(CNC(=O)[C@@H]2O[C@@](C)(C(F)(F)F)[C@@H](C)[C@H]2c2ccc(F)c(F)c2OC)n[nH]1 [Compound 288, (2R,3S,4S,5R)-3-(3,4-difluoro-2-methoxyphenyl)-N-((5-(methoxymethyl)-1H-pyrazol-3-yl)methyl)-4,5-dimethyl-5-(trifluoromethyl)tetrahydrofuran-2-carboxamide] | ≥ 1000
COc1c([C@H]2[C@H](C(=O)NCc3nc(C(C)C)no3)O[C@@](C)(C(F)(F)F)[C@H]2C)ccc(F)c1F [Compound 289, (2R,3S,4S,5R)-3-(3,4-difluoro-2-methoxyphenyl)-N-((3-isopropyl-1,2,4-oxadiazol-5-yl)methyl)-4,5-dimethyl-5-(trifluoromethyl)tetrahydrofuran-2-carboxamide] | ≥ 1000
COc1c([C@H]2[C@H](C(=O)NC3(Cc4ccccc4)CC3)O[C@@](C)(C(F)(F)F)[C@H]2C)ccc(F)c1F [Compound 291, (2R,3S,4S,5R)-N-(1-benzylcyclopropyl)-3-(3,4-difluoro-2-methoxyphenyl)-4,5-dimethyl-5-(trifluoromethyl)tetrahydrofuran-2-carboxamide] | ≥ 1000
COc1c([C@H]2[C@H](C(=O)NCC(C)N3CCN(C)CC3)O[C@@](C)(C(F)(F)F)[C@H]2C)ccc(F)c1F (stereo partly drawn) [Compound 293, (2R,3S,4S,5R)-3-(3,4-difluoro-2-methoxyphenyl)-4,5-dimethyl-N-(2-(4-methylpiperazin-1-yl)propyl)-5-(trifluoromethyl)tetrahydrofuran-2-carboxamide] | ≥ 1000
COc1c([C@H]2[C@H](C(=O)NC(C)c3cnn(C)c3)O[C@@](C)(C(F)(F)F)[C@H]2C)ccc(F)c1F (stereo partly drawn) [Compound 296, (2R,3S,4S,5R)-3-(3,4-difluoro-2-methoxyphenyl)-4,5-dimethyl-N-(1-(1-methyl-1H-pyrazol-4-yl)ethyl)-5-(trifluoromethyl)tetrahydrofuran-2-carboxamide] | ≥ 1000
COc1c([C@H]2[C@H](C(=O)NC(C)C(=O)NC3CC3)O[C@@](C)(C(F)(F)F)[C@H]2C)ccc(F)c1F (stereo partly drawn) [Compound 297, (2R,3S,4S,5R)-N-(1-(cyclopropylamino)-1-oxopropan-2-yl)-3-(3,4-difluoro-2-methoxyphenyl)-4,5-dimethyl-5-(trifluoromethyl)tetrahydrofuran-2-carboxamide] | ≥ 1000
COc1c([C@H]2[C@H](C(=O)NC3CCN(C(C)=O)C3)O[C@@](C)(C(F)(F)F)[C@H]2C)ccc(F)c1F (stereo partly drawn) [Compound 298, (2R,3S,4S,5R)-N-(1-acetylpyrrolidin-3-yl)-3-(3,4-difluoro-2-methoxyphenyl)-4,5-dimethyl-5-(trifluoromethyl)tetrahydrofuran-2-carboxamide] | ≥ 1000
COc1c([C@H]2[C@H](C(=O)NC3CCCCNC3=O)O[C@@](C)(C(F)(F)F)[C@H]2C)ccc(F)c1F (stereo partly drawn) [Compound 299, (2R,3S,4S,5R)-3-(3,4-difluoro-2-methoxyphenyl)-4,5-dimethyl-N-(2-oxoazepan-3-yl)-5-(trifluoromethyl)tetrahydrofuran-2-carboxamide] | ≥ 1000
COc1c([C@H]2[C@H](C(=O)NCC(O)c3cnn(C)c3)O[C@@](C)(C(F)(F)F)[C@H]2C)ccc(F)c1F (stereo partly drawn) [Compound 301, (2R,3S,4S,5R)-3-(3,4-difluoro-2-methoxyphenyl)-N-(2-hydroxy-2-(1-methyl-1H-pyrazol-4-yl)ethyl)-4,5-dimethyl-5-(trifluoromethyl)tetrahydrofuran-2-carboxamide] | ≥ 1000
COc1c([C@H]2[C@H](C(=O)NCC(=O)N3CCOCC3)O[C@@](C)(C(F)(F)F)[C@H]2C)ccc(F)c1F [Compound 304, (2R,3S,4S,5R)-3-(3,4-difluoro-2-methoxyphenyl)-4,5-dimethyl-N-(2-morpholino-2-oxoethyl)-5-(trifluoromethyl)tetrahydrofuran-2-carboxamide] | ≥ 1000
COc1c([C@H]2[C@H](C(=O)NC3(c4ccccc4)COC3)O[C@@](C)(C(F)(F)F)[C@H]2C)ccc(F)c1F [Compound 306, (2R,3S,4S,5R)-3-(3,4-difluoro-2-methoxyphenyl)-4,5-dimethyl-N-(3-phenyloxetan-3-yl)-5-(trifluoromethyl)tetrahydrofuran-2-carboxamide] | ≥ 1000

Other lines, results leading:

IC50 [nM] | SMILES
100 to 1000 | COc1c([C@H]2[C@H](C(=O)NCC3CNC(=O)C3)O[C@@](C)(C(F)(F)F)[C@H]2C)ccc(F)c1F (stereo partly drawn) [Compound 281, (2R,3S,4S,5R)-3-(3,4-difluoro-2-methoxyphenyl)-4,5-dimethyl-N-((5-oxopyrrolidin-3-yl)methyl)-5-(trifluoromethyl)tetrahydrofuran-2-carboxamide]
≥ 1000 | COc1c([C@H]2[C@H](C(=O)NCC3CN(C)C(=O)CO3)O[C@@](C)(C(F)(F)F)[C@H]2C)ccc(F)c1F (stereo partly drawn) [Compound 290, (2R,3S,4S,5R)-3-(3,4-difluoro-2-methoxyphenyl)-4,5-dimethyl-N-((4-methyl-5-oxomorpholin-2-yl)methyl)-5-(trifluoromethyl)tetrahydrofuran-2-carboxamide]
≥ 1000 | COc1c([C@H]2[C@H](C(=O)Nc3cc(C)nn3CCC#N)O[C@@](C)(C(F)(F)F)[C@H]2C)ccc(F)c1F [Compound 292, (2R,3S,4S,5R)-N-(1-(2-cyanoethyl)-3-methyl-1H-pyrazol-5-yl)-3-(3,4-difluoro-2-methoxyphenyl)-4,5-dimethyl-5-(trifluoromethyl)tetrahydrofuran-2-carboxamide]
≥ 1000 | COc1c([C@H]2[C@H](C(=O)NCc3ccc4ncccc4c3)O[C@@](C)(C(F)(F)F)[C@H]2C)ccc(F)c1F [Compound 294, (2R,3S,4S,5R)-3-(3,4-difluoro-2-methoxyphenyl)-4,5-dimethyl-N-(quinolin-6-ylmethyl)-5-(trifluoromethyl)tetrahydrofuran-2-carboxamide]
≥ 1000 | COc1c([C@H]2[C@H](C(=O)NCC3(C)CCOCC3)O[C@@](C)(C(F)(F)F)[C@H]2C)ccc(F)c1F [Compound 300, (2R,3S,4S,5R)-3-(3,4-difluoro-2-methoxyphenyl)-4,5-dimethyl-N-((4-methyltetrahydro-2H-pyran-4-yl)methyl)-5-(trifluoromethyl)tetrahydrofuran-2-carboxamide]
≥ 1000 | COc1c([C@H]2[C@H](C(=O)NCCN3CCNC(=O)C3)O[C@@](C)(C(F)(F)F)[C@H]2C)ccc(F)c1F [Compound 302, (2R,3S,4S,5R)-3-(3,4-difluoro-2-methoxyphenyl)-4,5-dimethyl-N-(2-(3-oxopiperazin-1-yl)ethyl)-5-(trifluoromethyl)tetrahydrofuran-2-carboxamide]
≥ 1000 | COc1c([C@H]2[C@H](C(=O)NC3CCN(C(N)=O)CC3)O[C@@](C)(C(F)(F)F)[C@H]2C)ccc(F)c1F [Compound 303, 4-((2R,3S,4S,5R)-3-(3,4-difluoro-2-methoxyphenyl)-4,5-dimethyl-5-(trifluoromethyl)tetrahydrofuran-2-carboxamido)piperidine-1-carboxamide]
≥ 1000 | COc1c([C@H]2[C@H](C(=O)NCC3(c4ccccc4)CC3)O[C@@](C)(C(F)(F)F)[C@H]2C)ccc(F)c1F [Compound 305, (2R,3S,4S,5R)-3-(3,4-difluoro-2-methoxyphenyl)-4,5-dimethyl-N-((1-phenylcyclopropyl)methyl)-5-(trifluoromethyl)tetrahydrofuran-2-carboxamide]
